Test results taken from US20090203776A1, “METHODS OF USING MENTHOL PROPYLENEGLYCOL-CARBONATE AND ANALOGS THEREOF FOR PRODUCING ANTI-INFLAMMATORY AND ANTI-ANGIOGENIC EFFECTS” (priority 2004, published 2009).

Columns and labels:
[1] = tested on: TPA-induced inflammatory response (mouse ear edema); assay: TPA-induced mouse ear edema, topical application; type: in vivo, mice; conditions: for anti-inflammatory effect (in words): TPA-induced inflammatory response, topical; for Anti-inflammatory Effect (% of control): reduction in ear thickness vs control group
Experimental: Edema was induced in mice by topical application of 10 μl of TPA (Tetradecnoylphorbol acetate) in acetone (2.5 μg/ear) to both the inner and outer surface of one ear of each mouse used in the experiment. Each test compound, diluted with acetone to a concentration of 10% was applied topically to the inflamed mouse ear immediately after TPA application, so as to deliver 2.5 mg/ear. The reference drug, indomethacin (0.5 mg/ear), was administered as a positive control. The thickness of each ear was measured before treatment and 4 hours after induction of inflammation, using a micrometer (Mitutoyo Co.). Anti-inflammatory effect was expressed as the reduction in ear thickness with respect to the control group.

[2] = tested on: aortic rings (angiogenic sprouting / microvessel formation); assay: ex vivo rat aortic ring angiogenesis assay; type: cell-based, Sprague Dawley rats; conditions: for % Inhibition (microvessel density) / Microvessel Density (pixel^2): day 10; for Microvessel Density (pixel^2): 5 aortic rings, ECGS as inducer; for anti-angiogenic effect (in words): rat aortic ring assay, 1, 10, and 100 μM
From the text: The effect of racemic menthol propyleneglycol-carbonate on angiogenesis was studied by culturing aortic explants in three-dimensional matrix gels according to the procedure of Kruger and Figg (Kruger E. A. and Figg, W. D. Protein Binding Alters the Activity of Suramin, Carboxyamidotriazole, and UCN-01 in an ex Vivo Rat Aortic Ring Angiogenesis Assay Clinical Cancer Research 7:1867-1872, 2001). Thoracic aortas were excised from 8-week-old mail Sprague Dawley rats and the fibroadipose tissue was removed. The aortas were sectioned into 1-mm-long cross-sections, rinsed with Human Endothelial-SFM (GIBCO), placed on the Matrigel-coated wells, covered with additional 50 μl Matrigel, and allowed to gel for more than 30 min at 37° C., 5% CO2. All the rings were cultured in Human Endothelial-SFM (GIBCO) supplemented with […] of ECGS (Endothelial Cell Growth Supplement, Sigma) as an angiogenesis inducer. Racemic menthol propylene-carbonate diluted with enthanol was added to the culture medium at final concentrations of 1, 10, and 100 μM. Ethanol alone (1%) was added to the culture medium as a vehicle control. All assays were performed by using 5 aortic rings per sample. Aortic rings were photographed on day 10. The area of angiogenic sprouting was calculated using Image-Pro Plus software (Media Cybernetics). Microvessel densities are reported in square pixels.

Ha-CaT cells = assay: cell cytotoxicity assay, XTT; type: cell-based; conditions: for Cell Viability (%): 48 hours, Ha-CaT
Experimental: 5×10^3 Ha-CaT cells were plated in each well of 96 well plates and racemic menthol propyleneglycol-carbonate was added at various concentrations. The plates were incubated for another 48 hours and the viable cells were measured by XTT Cell Proliferation Kit (Roche). More than 70% of Ha-CaT cells were viable even at high concentration of 100 μM.

[3] = tested on: HUVE (Human Umbilical Vein Endothelial) cells; assay: HUVE cell proliferation in the presence of bFGF, XTT; type: cell-based; conditions: 48 hours; for Proliferation (%): bFGF only = 100, no bFGF = 0; for Average (relative cell number, XTT): with bFGF
Experimental: HUVE (Human Umbilical Vein Endothelial) cells were isolated from human umbilical cord veins by a method of Jaffe et al. (Jaffe, E. A., Nachman, R. L., Becker, C. G., and Minick, C. R. Culture of Human endothelial cells derived from umbilical veins. J. Clin. Invest. 52: 2745-2756, 1973). HUVE cells were confirmed by immunostaining with antibody against factor VIII. The cells were grown in M199 medium (Gibco BRL, Grand Island, N.Y.) supplemented with 10% fetal bovine serum, 100 units/mL penicillin, 100 μg/mL streptomycin, 50 μg/mL endothelial cell growth supplement, and 5 units/mL heparin at 37° C. in an atmosphere of 5% CO2-95% air.
1×10^4 HUVE cells were plated in each well of 96 well plates and five different concentrations ranging from 1 to 100 of racemic menthol propyleneglycol-carbonate were tested in the presence of bFGF used as maximum proliferation control. Cells were cultured for an additional 48 hours, and relative cell numbers in each well were determined by XTT Cell Proliferation Kit (Roche).

[4] = 2.5 mg/ear topical (10% in acetone), 4 hours after TPA 2.5 μg/ear

C=C(C)C1CCC(C)CC1OC(=O)OCC(C)O (centres unmarked) [isopulegol propyleneglycol-carbonate]
anti-inflammatory effect (in words) [1]: Satisfactory anti-inflammatory effects
Anti-inflammatory Effect (% of control) [1, 4]: 33 % of control

COc1ccc2c(c1)c(CC(=O)O)c(C)n2C(=O)c1ccc(Cl)cc1 [Indomethacin, reference compound]
Anti-inflammatory Effect (% of control) ([1]; positive control, 0.5 mg/ear, 4 hours after TPA): 96 % of control

CC(O)COC(=O)OC1CC(C)CCC1C(C)C (racemic) [racemic menthol propyleneglycol-carbonate]
anti-inflammatory effect (in words) [1]: Satisfactory anti-inflammatory effects
Anti-inflammatory Effect (% of control) [1, 4]: 23 % of control
% Inhibition (microvessel density) ([2]; 1 uM): 15%
Microvessel Density (pixel^2) ([2]; 1 uM): 13.4 ± 4.1 pixel^2
% Inhibition (microvessel density) ([2]; 10 uM): 22%
Microvessel Density (pixel^2) ([2]; 10 uM): 12.2 ± 2.5 pixel^2
% Inhibition (microvessel density) ([2]; 100 uM): 33%
Microvessel Density (pixel^2) ([2]; 100 uM): 10.6 ± 3.8 pixel^2
anti-angiogenic effect (in words) [2]: Satisfactory anti-angiogenic effect
anti-angiogenic effect (in words) ([2]; listed as racemic menthol propylene-carbonate): inhibited microvessel formation in rat aortic ring assay in a dose dependent manner
Cell Viability (%) (Ha-CaT cells; 0.1 uM): 100%
Cell Viability (%) (Ha-CaT cells; 1.0 uM): 100%
Cell Viability (%) (Ha-CaT cells; 5.0 uM): 96.5%
Cell Viability (%) (Ha-CaT cells; 10.0 uM): 96.3%
Cell Viability (%) (Ha-CaT cells; 50.0 uM): 81.8%
cytotoxic effect on normal cells (in words) (Ha-CaT cells; Ha-CaT cells, up to 100 μM): non-toxic against normal cells
Proliferation (%) ([3]; 1 μM): 97.6%
Average (relative cell number, XTT) ([3]; 1 μM): 1.0623
Proliferation (%) ([3]; 5 μM): 93.9%
Average (relative cell number, XTT) ([3]; 5 μM): 1.0305
Proliferation (%) ([3]; 10 μM): 95.3%
Average (relative cell number, XTT) ([3]; 10 μM): 1.0425
Proliferation (%) ([3]; 50 μM): 97.6%
Average (relative cell number, XTT) ([3]; 50 μM): 1.0621
Proliferation (%) ([3]; 100 μM): 80.0%
Average (relative cell number, XTT) ([3]; 100 μM): 0.9121

CC1CCC(C(C)C)C(OCC(O)CO)C1 (centres unmarked) [menthoxy-propane-1,2-diol]
anti-inflammatory effect (in words) [1]: Satisfactory anti-inflammatory effects
Anti-inflammatory Effect (% of control) [1, 4]: 27 % of control

CC1CCC(C(C)C)C(OC(=O)OCCCCCCCCCO)C1 (centres unmarked) [menthyl-9-hydroxynonyl-carbonate]
anti-inflammatory effect (in words) [1]: Satisfactory anti-inflammatory effects
Anti-inflammatory Effect (% of control) [1, 4]: 45 % of control

CC1CCC(C(C)C)C(O)C1 (centres unmarked) [(l)-Menthol, reference compound]
anti-inflammatory effect (in words) [1]: no appreciable anti-inflammatory effect
Anti-inflammatory Effect (% of control) [1, 4]: 0 % of control
